Source: US7282522B2, “Hydroxamic acid derivatives and the method for preparing thereof” (Amorepacific Corporation, priority 2003, dated 2007)

Assays:
[1] = tested on: procollagen type I; assay: Effect on collagen biosynthesis (procollagen type I ELISA) in human fibroblasts; format: cell-based; conditions: 10^−4M, 24 hours, serum-free medium, relative to control group = 100
Procedure: Human fibroblasts were seeded into 24-well plate at 1×10^5 cells per well and then cultured to 90% of growth.
For each supernatant, procollagen production was measured with procollagen type I ELISA kit.

[2] = target: T1, RARγ (Homo sapiens, UniProt P13631); assay: RARE-luciferase reporter assay in transfected CV-1 cells (affinity to retinoic acid receptor), RARγ; format: cell-based; conditions: treated 24 hours at final concentration 10^−4M, control group 5000
T1 construct: expressed in transfected cells; host or cells: CV-1 cells (ATCC)
T1 sequence (P13631 1-454): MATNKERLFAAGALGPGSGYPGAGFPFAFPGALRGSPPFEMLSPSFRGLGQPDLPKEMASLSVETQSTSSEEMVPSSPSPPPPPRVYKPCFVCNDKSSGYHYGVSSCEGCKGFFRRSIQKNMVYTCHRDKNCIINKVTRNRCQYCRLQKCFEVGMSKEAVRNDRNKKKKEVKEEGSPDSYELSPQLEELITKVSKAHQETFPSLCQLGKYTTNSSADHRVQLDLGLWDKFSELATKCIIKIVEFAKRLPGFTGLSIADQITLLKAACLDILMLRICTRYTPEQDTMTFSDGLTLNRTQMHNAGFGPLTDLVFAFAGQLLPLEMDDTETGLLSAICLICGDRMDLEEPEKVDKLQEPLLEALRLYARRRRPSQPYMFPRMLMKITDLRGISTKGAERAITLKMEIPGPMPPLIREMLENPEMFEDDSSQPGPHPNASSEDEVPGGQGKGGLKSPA
Procedure, shortened: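 CV-1 cells in DMEM with 2.5% FBS, 5,000 per well, transfected 24 h after seeding with 10 ng pECE-RARα, pECE-RARγ, 100 ng RARE-tk-Luc reporter and 100 ng β-galactosidase vector. Read-out is RARE-driven luciferase.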

[3] = tested on: rabbits; assay: Primary skin irritation test on animals (Draize P.I.I.); conditions: depilated back; for P.I.I. (Primary Irritation Index): 0.5 ml of 1% solution in 1,3-butylene glycol:ethanol 7:3, observed 24 or 72 hours later; for Evaluation (skin irritation): 1% solution, according to Draize's P.I.I.
Procedure: Test was performed using fifty-six (56) of healthy male rabbits whose backs were depilated. […] 0.5ml of the test sample solution was applied to the right site of 2.5 cm×2.5 cm region on each of the depilated back. Left site with no sample treated was compared as a control. 24 hours or 72 hours later, skin abnormality such as erythema, crust and edema was observed.
Based on the score of skin response, skin irritation was evaluated according to Draize's P.I.I.(Primary Irritation Index) and compared with retinoic acid.

[4] = tested on: collagenase; assay: Inhibition of collagenase expression in human fibroblasts (ELISA kit); format: cell-based; conditions: 10^−4M, 24 hours, serum-free medium, relative to control group = 100
Procedure, shortened: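 Serum-starved human fibroblasts were treated for 24 h with 10^−4M test material in serum-free DMEM. Collagenase in the culture fluid was measured by sandwich ELISA read at 405 nm. Values are expressed as % of the untreated control (=100).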

[5] = target: T2, RARα (Homo sapiens, UniProt P10276); assay: RARE-luciferase reporter assay in transfected CV-1 cells (affinity to retinoic acid receptor), RARα; format: cell-based; conditions: treated 24 hours at final concentration 10^−4M, control group 1000
T2 construct: expressed in transfected cells; host or cells: CV-1 cells (ATCC)
T2 sequence (P10276 1-462): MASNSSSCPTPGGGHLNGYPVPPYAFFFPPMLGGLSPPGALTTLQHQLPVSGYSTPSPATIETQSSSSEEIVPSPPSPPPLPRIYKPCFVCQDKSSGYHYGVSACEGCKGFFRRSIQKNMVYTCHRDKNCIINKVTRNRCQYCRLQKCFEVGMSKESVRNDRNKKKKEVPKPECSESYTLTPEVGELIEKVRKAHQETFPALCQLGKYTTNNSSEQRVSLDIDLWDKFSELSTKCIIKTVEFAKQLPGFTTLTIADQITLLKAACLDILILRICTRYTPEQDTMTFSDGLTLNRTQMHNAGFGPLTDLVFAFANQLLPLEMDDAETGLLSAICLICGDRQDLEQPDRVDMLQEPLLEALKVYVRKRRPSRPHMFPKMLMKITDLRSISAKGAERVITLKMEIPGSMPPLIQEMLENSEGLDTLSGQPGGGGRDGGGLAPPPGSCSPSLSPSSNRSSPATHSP
Procedure, shortened: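 CV-1 cells co-transfected with pECE-RARα or pECE-RARγ, RARE-tk-Luc reporter and β-galactosidase vector. Starting 24 h post-transfection, cells were treated for 24 h with compounds at a final 10^−4M; luciferase reporter read-out.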

[6] = tested on: white guinea pigs; assay: Phototoxicity test (UVA irradiation); conditions: for Evaluation (phototoxicity): 1%(w/v) solution, UVA 15 J/cm^2; for Phototoxic index: 50 μl of 1%(w/v) solution, UVA 320~380 nm 15 J/cm^2, observed 24, 48 and 72 hours
[7] = tested on: elastase; assay: Inhibition of elastase expression in human fibroblasts (ELISA kit); format: cell-based; conditions: 10^−4M, 24 hours, serum-free medium, relative to control group = 100
Procedure, shortened: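 Elastase in fibroblast culture fluid quantified by sandwich ELISA: 3 h capture, then chromophore-conjugated secondary antibody, then colour development, stopped with 1M sulfuric acid. Absorbance read at 405 nm. Expression given as % of the untreated control absorbance, with control set to 100.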

Compound	Collagen biosynthesis (%) [1] [%]	Luciferase activity RARγ [2]	P.I.I. (Primary Irritation Index) [3]	Evaluation (skin irritation) [3]	Collagenase expression (%) [4] [%]	Luciferase activity RARα [5]	Evaluation (phototoxicity) [6]	Phototoxic index [6]	Elastase expression (%) [7] [%]
CCCCc1ccc(NC(=O)c2ccc(C(=O)NO)cc2)cc1 [Example 40, [4-(N-hydroxycarbamoyl)phenyl]-N-[4-butylphenyl]carboxyamide]	108	11200	0.546	No irritation	77	14300	No phototoxicity (lower value than 0.5, criterion value to be estimated as no phototoxicity)	0	90
CCCCc1ccc(C(=O)Nc2ccc(C(=O)NO)cc2)cc1 [Example 7, N-[4-(N-hydroxycarbamoyl)phenyl][4-butylphenyl]carboxyamide]	109	11700	0.312	No irritation	84	12000	No phototoxicity (lower value than 0.5, criterion value to be estimated as no phototoxicity)	0	77
O=C(NO)c1ccc(C(=O)NC23CC4CC(CC(C4)C2)C3)cc1 [Example 43, [4-(N-hydroxycarbamoyl)phenyl]-N-adamantyl carboxyamide]	130	10600	0.456	No irritation	77	18900	No phototoxicity (lower value than 0.5, criterion value to be estimated as no phototoxicity)	0	70
Cc1cccc(C(=O)N(C)c2ccc(C(=O)NO)cc2)c1 [Example 14, N-[4-(N-hydroxycarbamoyl)phenyl]-N-methyl-[3-methylphenyl]carboxyamide]	115	10300	0.231	No irritation	72	18000	No phototoxicity (lower value than 0.5, criterion value to be estimated as no phototoxicity)	0	75
Cc1cccc(N(C)C(=O)c2ccc(C(=O)NO)cc2)c1 [Example 47, [4-(N-hydroxycarbamoyl)phenyl]-N-methyl-N-[3-methylphenyl]carboxyamide]	112	11700	0.367	No irritation	79	12200	No phototoxicity (lower value than 0.5, criterion value to be estimated as no phototoxicity)	0	83
CCc1ccc(C(=O)Nc2ccc(CC(=O)NO)cc2)cc1 [Example 26, N-[4-(N-hydroxycarbamoylmethyl)phenyl][4-ethylphenyl]carboxyamide]	123	11200	0.321	No irritation	78	17500	No phototoxicity (lower value than 0.5, criterion value to be estimated as no phototoxicity)	0	86
CC(C)c1ccc(C(=O)Nc2ccc(CC(=O)NO)cc2)cc1 [Example 28, N-[4-(N-hydroxycarbamoylmethyl)phenyl][4-isopropylphenyl]carboxyamide]	121	10700	0.765	No irritation	67	12900	No phototoxicity (lower value than 0.5, criterion value to be estimated as no phototoxicity)	0	79
Cc1ccc(NC(=O)c2ccc(C(=O)NO)cc2)cc1C [Example 42, [4-(N-hydroxycarbamoyl)phenyl]-N-[3,4-dimethylphenyl]carboxyamide]	116	11200	0.987	No irritation	78	14500	No phototoxicity (lower value than 0.5, criterion value to be estimated as no phototoxicity)	0	76
CN(O)C(=O)c1ccc(C(=O)N(C)C23CC4CC(CC(C4)C2)C3)cc1 [Example 55, N-adamantyl [4-(N-hydroxy-N-methylcarbamoyl)phenyl]-N-methyl carboxyamide]	108	11000	0.245	No irritation	85	13400	No phototoxicity (lower value than 0.5, criterion value to be estimated as no phototoxicity)	0	70
CCc1ccc(C(=O)N(C)c2ccc(C(=O)NO)cc2)cc1 [Example 15, N-[4-(N-hydroxycarbamoyl)phenyl]-N-methyl-[4-ethylphenyl]carboxyamide]	112	10400	0.789	No irritation	79	14500	No phototoxicity (lower value than 0.5, criterion value to be estimated as no phototoxicity)	0	76
CC(C)c1ccc(NC(=O)c2ccc(C(=O)NO)cc2)cc1 [Example 39, [4-(N-hydroxycarbamoyl)phenyl]-N-[4-isopropylphenyl]carboxyamide]	105	10100	0.145	No irritation	78	18700	No phototoxicity (lower value than 0.5, criterion value to be estimated as no phototoxicity)	0	87
CN(C(=O)C12CC3CC(CC(C3)C1)C2)c1ccc(C(=O)NO)cc1 [Example 21, N-[4-(N-hydroxycarbamoyl)phenyl]adamantyl-N-methylcarboxyamide]	118	11200	0.345	No irritation	69	12500	No phototoxicity (lower value than 0.5, criterion value to be estimated as no phototoxicity)	0	78
